# Assay results: article PMC12431657, “Discovery and mechanistic insights of dibenzoylmethane as a broad spectrum inhibitor of coronavirus” (PLOS Pathogens, 2025)
# “And” between values parts separate entries of the source, which are not always exact repeats. Equal entries are not always repeated.
# What was measured:
# [1] = system: HCoV-OC43; type: cell-based; settings: transient expression or RDV control, replicates
# [2] = system: HCoV-OC43; test: Time-of-addition assay; type: cell-based; settings: replicates
# Procedure: To obtain further insight into the stage at which DBM inhibits the replication of HCoV-OC43 and other HCoVs, RD cells were incubated with compounds, including DBM, remdesivir (RDV), and chloroquine (CQ), at different stages of viral infection. Viral RNA from the supernatant was extracted and quantitatively analysed via qRT-PCR. […] For the viral binding assay, cells were cultured in the presence or absence of DBM at different concentrations for 1 hour before being infected with HCoV-OC43 at an MOI of 50, and then were placed on ice for 2 hours for the viral particles to bind to the membrane of the host cells, followed by washing with PBS. […] In addition to binding to receptors from host cells, the spike proteins of HCoV-OC43 could also trigger membrane fusion when HCoV-OC43 spike plasmid-transfected 293T cells were seeded together with RD cells as target cells, and the addition of DBM had no effect on this process (S5C Fig). To examine whether DBM inhibits viral internalisation, cells were inoculated with HCoV-OC43 for 1 hour on ice before being treated with either DBM or DMSO, and CQ was included to prevent endosomal acidification. Subsequently, HCoV-OC43 nucleocapsid proteins were immunostained with CoraLite Plus 488 to assess viral internalisation via confocal microscopy. […] To determine whether DBM influences viral release, we quantified viral RNA both intracellularly and in the supernatant.
# To evaluate the effects of DBM on the life cycle of HCoV-229E and HCoV-OC43, fresh culture medium containing 0.6 μM DBM, 0.1 μM remdesivir (RDV), or 10 μM chloroquine (CQ) was supplemented with preseeded cells at different time points relative to infection (entry group: 0 to –2 hours; postinfection group: 2–12 hours; and full-time group: 0 to –12 hours). DMSO served as the control. At 24 hours postinfection, the number of intracellular virus RNA copies was quantified by qRT-PCR as previously described.
smiles,measurement,setting,value
CCC(CC)COC(=O)[C@H](C)N[P@](=O)(OC[C@H]1O[C@@](C#N)(c2ccc3c(N)ncnn23)[C@H](O)[C@@H]1O)Oc1ccccc1 [RDV],HCoV-OC43 inhibition (Fig5C),[1],97.17 and 71.11 and 82.55
same,"time-of-addition, viral inhibition",[2]; Entry,67.6 and 36.5 and 35.3
same,"time-of-addition, viral inhibition",[2]; Full-Time,99.4 and 98.9 and 99.6
same,"time-of-addition, viral inhibition",[2]; Post-Entry,98.3 and 99.4 and 98.6
